Source: article PMC8228600, “Design, Synthesis, In Vitro and In Vivo Evaluation of Heterobivalent SiFAlin-Modified Peptidic Radioligands Targeting Both Integrin αvβ3 and the MC1 Receptor—Suitable for the Specific Visualization of Melanomas?” (Pharmaceuticals, 2021)
Like-named read-outs stand apart in the source and are kept apart here. Where a SMILES comes first, the peptide text is derived from it. [ ]: non-standard residue; d: D form.

Key:
MC1R = molecular target: T1, MC1R (Mus musculus, UniProt Q01727); experiment: Competitive displacement assay on MC1R-positive B16F10 cells vs [125I]I-NDP; type: binding, murine
T1 construct: host or cells: B16F10 murine melanoma cells (whole cells)
Protocol: (§1) As in vitro receptor affinities represent an important parameter for the in vivo tumor uptake of radiotracers, the binding affinities of 1–6 were determined to both target receptors—integrin αvβ3 and the MC1R—in competitive displacement assays.
(§2) Murine melanoma cells (B16F10) and human glioblastoma cells (U87MG) as well as Dulbecco’s Modified Eagle’s Medium (DMEM) and Eagle’s Minimum Essential Medium (EMEM) were purchased from ATCC (Wesel, Germany). Fetal calf serum (FCS) was obtained from Bio&SELL (Feucht, Germany); phosphate-buffered saline (PBS), 1,10-phenanthroline, tris(hydroxymethyl)aminomethane hydrochloride (Tris·HCl) and manganese chloride (MnCl2) were obtained from Sigma-Aldrich (Taufkirchen, Germany); penicillin/streptomycin (pen/strep) and 0.25% Trypsin with 0.02% EDTA-solution in PBS were obtained from Gibco (Schwerte, Germany); 2-(4-(2-hydroxyethyl)-1-piperazinyl)-ethanesulfonic acid (HEPES) was obtained from Gerbu (Heidelberg, Germany); bovine serum albumin (BSA), sodium chloride (NaCl), calcium chloride (CaCl2) and magnesium chloride (MgCl2) were obtained from Carl Roth (Karlsruhe, Germany). [^125I]I-NDP (NEX352, 81.4 GBq/μmol) and [^125I]I-echistatin (NEX083, 81.4 GBq/μmol) were purchased from PerkinElmer (Rodgau, Germany). γ-counting was performed using a 2480 Wizard^2 gamma counter system from PerkinElmer.
(§3) To determine the binding affinity to the respective receptor, competitive displacement studies were performed on MC1R-expressing B16F10 and on integrin αvβ3-expressing U87MG cells. Each compound was evaluated at least three times, each experiment being performed in triplicate. As radioligands, [^125I]I-NDP (81.4 GBq/μmol) and [^125I]I-echistatin (81.4 GBq/μmol) were used as competitors. First, the Millipore MultiScreen 96-well filter plate was incubated with 200 μL/well of a BSA/PBS (1/99, w/v) solution at 25 °C for 1 h. After preparing the binding buffers (DMEM with 25 mM HEPES, 0.3 mM 1,10-phenanthroline and 0.2% BSA; EMEM with 20 mM Tris·HCl, 150 mM NaCl, 2 mM CaCl2, 1 mM MgCl2, 1 mM MnCl2 and 0.1% BSA), the dilution series of the HBPLs 1–6 (0.04–4 μM and 2–400 μM) and the reference agents 36–39 (0.01–1 μM and 0.04–400 μM) were prepared in the respective binding buffer. The solution of the respective radioligand was prepared by adding 55–75 kBq of the respective ^125I-labeled competitor to 3.5 mL of binding buffer. The respective cells were harvested and re-suspended in the binding buffer to give a cell concentration of 2 × 10^6/mL. After the BSA solution was filtered using the Millipore Multiscreen vacuum manifold, 50 μL of a cell suspension containing 10^5 cells were seeded in each well. Subsequently, 25 μL of the ^125I-labeled competitor solution (0.018 kBq/μL) and 25 μL of the respective compound to be tested were added. The compound to be tested was added in eleven increasing concentrations, whereas the 12th well contained no test compound to ensure the 100% binding of the ^125I-labeled competitor. After incubation of the plate for another hour at 25°C, the solution was filtrated using the Millipore Multiscreen vacuum manifold, and the cells were washed three times with cold PBS (1 × 200 μL, 2 × 100 μL). Using a Millipore MultiScreen disposable punch and a Millipore MultiScreen punch kit, the filters of the well plate were collected in γ-counter tubes separately and measured by γ-counting. The determination of the half-maximal inhibitory concentration (IC50) values was performed by fitting the obtained data via nonlinear regression using GraphPad Prism (v6.05).

integrin αvβ3 = molecular target: T2, integrin αvβ3 (Homo sapiens, UniProt P05106+P06756); experiment: Competitive displacement assay on integrin αvβ3-positive U87MG cells vs [125I]I-echistatin; type: binding
T2 construct: host or cells: U87MG human glioblastoma cells (whole cells)
Protocol: as §1, §2, §3

Row | Compound | IC50 (MC1R) [nM] | IC50 (integrin αvβ3) [nM] | further results
1 | CCCC[C@H](NC(=O)CNC(=O)CNC(=O)CCOCCOCCOCCOCCOCCOCCOCCOCCOCCC(=O)NCCCN(CCCNC(=O)CCOCCOCCOCCOCCOCCOCCOCCOCCOCCC(=O)NCCCC[C@@H]1NC(=O)[C@@H](Cc2ccccc2)NC(=O)[C@H](CC(=O)O)NC(=O)CNC(=O)[C@H](CCCNC(=N)N)NC1=O)CC(=O)N[C@@H](CCCCNC(=O)CCC[N+](C)(C)Cc1ccc([Si](F)(C(C)(C)C)C(C)(C)C)cc1)C(N)=O)C(=O)N[C@H]1CC(=O)NCCCC[C@@H](C(N)=O)NC(=O)[C@H](Cc2c[nH]c3ccccc23)NC(=O)[C@H](CCCNC(=N)N)NC(=O)[C@@H](Cc2ccccc2)NC(=O)[C@H](Cc2c[nH]cn2)NC1=O [HBPL 4, SiFAlin-APG-PEG8-c(RGDfK)/GG-Nle-c(DHfRWK)] | 6 ± 0.47 | 2030 ± 323 | 
2 | CCCC[C@H](NC(=O)CNC(=O)CNC(=O)[C@H](CCC(=O)O)NC(=O)CNC(=O)[C@H](CCC(=O)O)NC(=O)CNC(=O)[C@H](CCC(=O)O)NC(=O)C(=O)NCCCN(CCCNC(=O)C(=O)N[C@@H](CCC(=O)O)C(=O)NCC(=O)N[C@@H](CCC(=O)O)C(=O)NCC(=O)N[C@@H](CCC(=O)O)C(=O)NCCCC[C@@H]1NC(=O)[C@@H](Cc2ccccc2)NC(=O)[C@H](CC(=O)O)NC(=O)CNC(=O)[C@H](CCCNC(=N)N)NC1=O)CC(=O)N[C@@H](CCCCNC(=O)CCC[N+](C)(C)Cc1ccc([Si](F)(C(C)(C)C)C(C)(C)C)cc1)C(N)=O)C(=O)N[C@H]1CC(=O)NCCCC[C@@H](C(N)=O)NC(=O)[C@H](Cc2c[nH]c3ccccc23)NC(=O)[C@H](CCCNC(=N)N)NC(=O)[C@@H](Cc2ccccc2)NC(=O)[C@H](Cc2c[nH]cn2)NC1=O [HBPL 6, SiFAlin-APG-Ox-EGEGE-c(RGDfK)/GG-Nle-c(DHfRWK)] | 4.18 ± 0.32 | > 100000 | IC50 (U87MG) (integrin αvβ3; integrin αvβ3-positive U87MG cells, competitor [125I]I-echistatin, mean ± SD): could not be determined
3 | CCCC[C@H](NC(=O)CNC(=O)CNC(=O)COCC(=O)NCCCN(CCCNC(=O)COCC(=O)NCCCC[C@@H]1NC(=O)[C@@H](Cc2ccccc2)NC(=O)[C@H](CC(=O)O)NC(=O)CNC(=O)[C@H](CCCNC(=N)N)NC1=O)CC(=O)N[C@@H](CCCCNC(=O)CCC[N+](C)(C)Cc1ccc([Si](F)(C(C)(C)C)C(C)(C)C)cc1)C(N)=O)C(=O)N[C@H]1CC(=O)NCCCC[C@@H](C(N)=O)NC(=O)[C@H](Cc2c[nH]c3ccccc23)NC(=O)[C@H](CCCNC(=N)N)NC(=O)[C@@H](Cc2ccccc2)NC(=O)[C@H](Cc2c[nH]cn2)NC1=O [HBPL 5, SiFAlin-APG-DIG-c(RGDfK)/GG-Nle-c(DHfRWK)] | 2.05 ± 0.35 | 5900 ± 722 | 
4 | CCCC[C@H](NC(=O)CNC(=O)CNC(=O)CCOCCOCCC(=O)NCCCN(CCCNC(=O)CCOCCOCCC(=O)NCCCC[C@@H]1NC(=O)[C@@H](Cc2ccccc2)NC(=O)[C@H](CC(=O)O)NC(=O)CNC(=O)[C@H](CCCNC(=N)N)NC1=O)CC(=O)N[C@@H](CCCCNC(=O)CCC[N+](C)(C)Cc1ccc([Si](F)(C(C)(C)C)C(C)(C)C)cc1)C(N)=O)C(=O)N[C@H]1CC(=O)NCCCC[C@@H](C(N)=O)NC(=O)[C@H](Cc2c[nH]c3ccccc23)NC(=O)[C@H](CCCNC(=N)N)NC(=O)[C@@H](Cc2ccccc2)NC(=O)[C@H](Cc2c[nH]cn2)NC1=O [HBPL 1, SiFAlin-APG-PEG1-c(RGDfK)/GG-Nle-c(DHfRWK)] | 1.74 ± 0.25 | 2880 ± 757 | 
5 | CCCC[C@H](NC(=O)CNC(=O)CNC(=O)CCOCCOCCOCCOCCOCCOCCC(=O)NCCCN(CCCNC(=O)CCOCCOCCOCCOCCOCCOCCC(=O)NCCCC[C@@H]1NC(=O)[C@@H](Cc2ccccc2)NC(=O)[C@H](CC(=O)O)NC(=O)CNC(=O)[C@H](CCCNC(=N)N)NC1=O)CC(=O)N[C@@H](CCCCNC(=O)CCC[N+](C)(C)Cc1ccc([Si](F)(C(C)(C)C)C(C)(C)C)cc1)C(N)=O)C(=O)N[C@H]1CC(=O)NCCCC[C@@H](C(N)=O)NC(=O)[C@H](Cc2c[nH]c3ccccc23)NC(=O)[C@H](CCCNC(=N)N)NC(=O)[C@@H](Cc2ccccc2)NC(=O)[C@H](Cc2c[nH]cn2)NC1=O [HBPL 3, SiFAlin-APG-PEG5-c(RGDfK)/GG-Nle-c(DHfRWK)] | 3.44 ± 0.09 | 1910 ± 70 | 
6 | CCCC[C@H](NC(=O)CNC(=O)CNC(=O)CCOCCOCCOCCOCCC(=O)NCCCN(CCCNC(=O)CCOCCOCCOCCOCCC(=O)NCCCC[C@@H]1NC(=O)[C@@H](Cc2ccccc2)NC(=O)[C@H](CC(=O)O)NC(=O)CNC(=O)[C@H](CCCNC(=N)N)NC1=O)CC(=O)N[C@@H](CCCCNC(=O)CCC[N+](C)(C)Cc1ccc([Si](F)(C(C)(C)C)C(C)(C)C)cc1)C(N)=O)C(=O)N[C@H]1CC(=O)NCCCC[C@@H](C(N)=O)NC(=O)[C@H](Cc2c[nH]c3ccccc23)NC(=O)[C@H](CCCNC(=N)N)NC(=O)[C@@H](Cc2ccccc2)NC(=O)[C@H](Cc2c[nH]cn2)NC1=O [HBPL 2, SiFAlin-APG-PEG3-c(RGDfK)/GG-Nle-c(DHfRWK)] | 0.99 ± 0.11 | 1300 ± 288 | 
7 | NDP: superpotent synthetic analog of the endogenous ligand α-MSH; reference and blocking substance [reference compound] |  |  | IC50 (MC1R; MC1R-positive B16F10 cells, competitor [125I]I-NDP, mean ± SD, read-out: IC50 (B16F10)): 0.17 ± 0.04 nM
8 | Gly-Gly-Nle-cyclic Asp-His-DPhe-Arg-Trp-Lys [GG-Nle-c(DHfRWK), reference compound] |  |  | receptor-specific binding to integrin αvβ3 (integrin αvβ3; U87MG cells, same conditions as IC50 assay (Figure S92)): no receptor-specific binding
9 | N=C(N)NCCC[C@@H]1NC(=O)[C@H](CS)NC(=O)[C@@H](Cc2ccccc2)NC(=O)[C@H](CC(=O)O)NC(=O)CNC1=O [c(RGDfC), reference compound] (cyclo(RGD[dF]C)) |  |  | IC50 (integrin αvβ3; integrin αvβ3-positive U87MG cells, competitor [125I]I-echistatin, mean ± SD, read-out: IC50 (U87MG)): 1490 ± 210 nM
10 | N=C(N)NCCC[C@@H]1NC(=O)[C@H](CCCCN)NC(=O)[C@@H](Cc2ccccc2)NC(=O)[C@H](CC(=O)O)NC(=O)CNC1=O [c(RGDfK), cyclic Arg-Gly-Asp-DPhe-Lys, reference compound] |  |  | receptor-specific binding to MC1R (MC1R; B16F10 cells, same conditions as IC50 assay (Figure S92)): no receptor-specific binding
